# According to PMC5218480 (PLoS ONE, 2017):
# Test system: MV-4-11 cells
# Assay: Gene expression microarray analysis (Affymetrix PrimeView) and GSEA
# Assay type: cell-based, human
# Set-up: RFU PODN (11730768_x_at) / Fold change /veh PODN (11730768_x_at) / RFU LINC00158 (11744669_a_at) / Fold change /veh LINC00158 (11744669_a_at) / RFU DUSP10 (11751237_a_at) / Fold change /veh DUSP10 (11751237_a_at) / RFU ID3 (11757404_x_at) / Fold change /veh ID3 (11757404_x_at) / RFU PLEKHG5 (11737974_s_at) / Fold change /veh PLEKHG5 (11737974_s_at) / RFU LRRC4B (11730491_at) / Fold change /veh LRRC4B (11730491_at) / RFU GIMAP4 (11747438_a_at) / Fold change /veh GIMAP4 (11747438_a_at) / RFU KRT8 (11758183_x_at) / Fold change /veh KRT8 (11758183_x_at) / RFU CNN1 (11734310_a_at) / Fold change /veh CNN1 (11734310_a_at) / RFU VPS37D (11726825_at) / Fold change /veh VPS37D (11726825_at) / RFU C10orf10 (11716522_x_at) / Fold change /veh C10orf10 (11716522_x_at) / RFU KIR2DL2 /// KIR2DL4 /// KIR2DL5A /// KIR2DL5B /// KIR2DS1 /// KIR2DS2 /// KIR2DS3 /// KIR2DS4 /// KIR3DL3 /// KIR3DL3 /// KIR3DS1 (11738374_at) / Fold change /veh KIR2DL2 /// KIR2DL4 /// KIR2DL5A /// KIR2DL5B /// KIR2DS1 /// KIR2DS2 /// KIR2DS3 /// KIR2DS4 /// KIR3DL3 /// KIR3DL3 /// KIR3DS1 (11738374_at) / RFU C1QL1 (11718748_at) / Fold change /veh C1QL1 (11718748_at) / RFU TMPRSS4 (11747572_a_at) / Fold change /veh TMPRSS4 (11747572_a_at) / RFU HAMP (11756126_x_at) / Fold change /veh HAMP (11756126_x_at) / RFU RNFT2 (11725882_a_at) / Fold change /veh RNFT2 (11725882_a_at) / RFU NR4A2 (11747474_a_at) / Fold change /veh NR4A2 (11747474_a_at) / RFU ABCC12 (11746883_a_at) / Fold change /veh ABCC12 (11746883_a_at) / RFU TMEM136 (11760407_x_at) / Fold change /veh TMEM136 (11760407_x_at) / RFU CLDN22 /// WWC2 (11732394_at) / Fold change /veh CLDN22 /// WWC2 (11732394_at) / RFU HLA-DPB1 (11760878_x_at) / Fold change /veh HLA-DPB1 (11760878_x_at) / RFU SPINT1 (11716480_a_at) / Fold change /veh SPINT1 (11716480_a_at) / RFU GAP43 (11754022_s_at) / Fold change /veh GAP43 (11754022_s_at) / RFU A4GNT (11735810_at) / Fold change /veh A4GNT (11735810_at) / RFU PRB3 (11715151_x_at) / Fold change /veh PRB3 (11715151_x_at) / RFU TUBB4B (11761932_at) / Fold change /veh TUBB4B (11761932_at) / RFU CAPN14 (11732068_a_at) / Fold change /veh CAPN14 (11732068_a_at) / RFU TMCC2 (11721928_a_at) / Fold change /veh TMCC2 (11721928_a_at) / RFU IRGQ (11745062_a_at) / Fold change /veh IRGQ (11745062_a_at) / RFU FAM174B (11720279_a_at) / Fold change /veh FAM174B (11720279_a_at) / RFU TMPRSS4 (11748680_a_at) / Fold change /veh TMPRSS4 (11748680_a_at) / RFU FAM212B (11763350_a_at) / Fold change /veh FAM212B (11763350_a_at) / RFU PLEKHG5 (11743358_a_at) / Fold change /veh PLEKHG5 (11743358_a_at) / RFU ZSCAN30 (11745921_a_at) / Fold change /veh ZSCAN30 (11745921_a_at) / RFU CMKLR1 (11741424_a_at) / Fold change /veh CMKLR1 (11741424_a_at) / RFU LOC101060620 /// MAPK8IP1 (11723275_at) / Fold change /veh LOC101060620 /// MAPK8IP1 (11723275_at) / RFU SPTSSB (11747773_x_at) / Fold change /veh SPTSSB (11747773_x_at) / RFU PRSS12 (11739890_at) / Fold change /veh PRSS12 (11739890_at) / RFU BIN1 (11741810_x_at) / Fold change /veh BIN1 (11741810_x_at) / RFU WNT11 (11732464_a_at) / Fold change /veh WNT11 (11732464_a_at) / RFU C10orf10 (11716521_a_at) / Fold change /veh C10orf10 (11716521_a_at) / RFU C5orf56 (11738089_at) / Fold change /veh C5orf56 (11738089_at) / RFU CYB561 (11721691_x_at) / Fold change /veh CYB561 (11721691_x_at) / RFU ANKRD19P (11752326_a_at) / Fold change /veh ANKRD19P (11752326_a_at) / RFU OR2T12 /// OR2T33 /// OR2T8 (11738714_s_at) / Fold change /veh OR2T12 /// OR2T33 /// OR2T8 (11738714_s_at) / RFU VCAN (11748164_a_at) / Fold change /veh VCAN (11748164_a_at) / RFU JSRP1 (11732532_at) / Fold change /veh JSRP1 (11732532_at) / RFU KRTAP10-11 (11738290_x_at) / Fold change /veh KRTAP10-11 (11738290_x_at) / RFU MYO3A (11730013_a_at) / Fold change /veh MYO3A (11730013_a_at) / RFU EBF3 (11725865_a_at) / Fold change /veh EBF3 (11725865_a_at) / RFU CAMK2N1 (11719241_x_at) / Fold change /veh CAMK2N1 (11719241_x_at) / RFU C5orf56 (11738088_a_at) / Fold change /veh C5orf56 (11738088_a_at) / RFU OLFML3 (11715873_a_at) / Fold change /veh OLFML3 (11715873_a_at) / RFU LOC100653217 /// NTM (11731650_a_at) / Fold change /veh LOC100653217 /// NTM (11731650_a_at) / RFU MAPK11 (11762145_a_at) / Fold change /veh MAPK11 (11762145_a_at) / RFU FIZ1 (11724087_x_at) / Fold change /veh FIZ1 (11724087_x_at) / RFU OASL (11726364_x_at) / Fold change /veh OASL (11726364_x_at) / RFU SOX15 (11748057_x_at) / Fold change /veh SOX15 (11748057_x_at) / RFU CD79A (11719716_a_at) / Fold change /veh CD79A (11719716_a_at) / RFU HIST1H1D (11736915_at) / Fold change /veh HIST1H1D (11736915_at) / RFU CASKIN2 (11723855_a_at) / Fold change /veh CASKIN2 (11723855_a_at) / RFU LOC730098 (11760151_x_at) / Fold change /veh LOC730098 (11760151_x_at) / RFU OR4N2 (11742367_at) / Fold change /veh OR4N2 (11742367_at) / RFU PRRT2 (11749266_a_at) / Fold change /veh PRRT2 (11749266_a_at) / RFU SNX32 (11753110_a_at) / Fold change /veh SNX32 (11753110_a_at) / RFU CDHR5 (11726645_a_at) / Fold change /veh CDHR5 (11726645_a_at) / RFU RCAN1 (11760418_a_at) / Fold change /veh RCAN1 (11760418_a_at) / RFU FAM167A (11723789_a_at) / Fold change /veh FAM167A (11723789_a_at) / RFU FAM26E (11764081_at) / Fold change /veh FAM26E (11764081_at) / RFU ISYNA1 (11749810_s_at) / Fold change /veh ISYNA1 (11749810_s_at) / RFU ACY1 (11761880_at) / Fold change /veh ACY1 (11761880_at) / RFU 11764098_at / Fold change /veh 11764098_at / RFU SAMD14 (11745864_x_at) / Fold change /veh SAMD14 (11745864_x_at) / RFU NPB (11741838_a_at) / Fold change /veh NPB (11741838_a_at) / RFU TMPRSS6 (11731388_a_at) / Fold change /veh TMPRSS6 (11731388_a_at) / RFU KRTAP10-2 (11738614_at) / Fold change /veh KRTAP10-2 (11738614_at) / RFU ARHGAP8 /// PRR5-ARHGAP8 (11727945_x_at) / Fold change /veh ARHGAP8 /// PRR5-ARHGAP8 (11727945_x_at) / RFU KRTAP5-7 /// NADSYN1 (11734609_at) / Fold change /veh KRTAP5-7 /// NADSYN1 (11734609_at) / RFU RASL12 (11751679_a_at) / Fold change /veh RASL12 (11751679_a_at) / RFU CDKN2B (11736163_a_at) / Fold change /veh CDKN2B (11736163_a_at) / RFU PRF1 (11729649_at) / Fold change /veh PRF1 (11729649_at) / RFU, ZNF638 /// ZNF638-IT1 / Fold change vs veh, ZNF638 /// ZNF638-IT1 / RFU, PANK3 / Fold change vs veh, PANK3 / RFU, SH3YL1 / Fold change vs veh, SH3YL1 / RFU, ZEB2 / Fold change vs veh, ZEB2 / RFU, NRIP1 / Fold change vs veh, NRIP1 / RFU, PTTG1IP / Fold change vs veh, PTTG1IP / RFU, CAPN2 / Fold change vs veh, CAPN2 / RFU, MED14 / Fold change vs veh, MED14 / RFU, SNORA58 / Fold change vs veh, SNORA58 / RFU, C1orf63 / Fold change vs veh, C1orf63 / RFU, LRRFIP1 / Fold change vs veh, LRRFIP1 / RFU, NDUFAF7 / Fold change vs veh, NDUFAF7 / RFU, SLC12A2 / Fold change vs veh, SLC12A2 / RFU, IBTK / Fold change vs veh, IBTK / RFU, ESF1 / Fold change vs veh, ESF1 / Fold change vs veh, TMEM50B / RFU, TAOK1 / Fold change vs veh, TAOK1 / RFU, ACBD3 / Fold change vs veh, ACBD3 / RFU, TMA16 / Fold change vs veh, TMA16 / RFU, RWDD3 / Fold change vs veh, RWDD3 / RFU, BCAT1 / Fold change vs veh, BCAT1 / RFU, EDEM3 / Fold change vs veh, EDEM3 / RFU, TMEM33 / Fold change vs veh, TMEM33 / RFU, WDR75 / Fold change vs veh, WDR75 / RFU, AHCTF1 / Fold change vs veh, AHCTF1 / RFU, TFRC / Fold change vs veh, TFRC / RFU, ZDHHC17 / Fold change vs veh, ZDHHC17 / RFU, NOM1 / Fold change vs veh, NOM1 / RFU, ARL8B / Fold change vs veh, ARL8B / RFU, ZBTB11 / Fold change vs veh, ZBTB11 / RFU, TAMM41 / Fold change vs veh, TAMM41 / RFU, KIAA1704 /// LOC100996395 / Fold change vs veh, KIAA1704 /// LOC100996395 / RFU, ING1 / Fold change vs veh, ING1 / RFU, TRMT61B / Fold change vs veh, TRMT61B / RFU, FUBP3 / Fold change vs veh, FUBP3 / RFU, TP53 / Fold change vs veh, TP53 / RFU, TNKS2 / Fold change vs veh, TNKS2 / RFU, ZFP14 / Fold change vs veh, ZFP14 / RFU, ACTR2 / Fold change vs veh, ACTR2 / RFU, PPP3R1 / Fold change vs veh, PPP3R1 / RFU, PIK3R1 / Fold change vs veh, PIK3R1 / RFU, HNRNPA1 / Fold change vs veh, HNRNPA1 / RFU, RNF170 / Fold change vs veh, RNF170 / RFU, ZNF28 / Fold change vs veh, ZNF28 / RFU, RNGTT / Fold change vs veh, RNGTT / RFU, OGT / Fold change vs veh, OGT / RFU, BRD1 / Fold change vs veh, BRD1 / RFU, MARS / Fold change vs veh, MARS / RFU, ZNF655 / Fold change vs veh, ZNF655 / RFU, FAHD1 / Fold change vs veh, FAHD1 / RFU, BDP1 / Fold change vs veh, BDP1 / RFU, LRRCC1 / Fold change vs veh, LRRCC1 / RFU, ARID1A / Fold change vs veh, ARID1A / RFU, ZNF146 / Fold change vs veh, ZNF146 / RFU, ZNF330 / Fold change vs veh, ZNF330 / RFU, GPN3 / Fold change vs veh, GPN3 / RFU, C9orf123 / Fold change vs veh, C9orf123 / RFU, N4BP2L2 / Fold change vs veh, N4BP2L2 / RFU, ARFIP1 / Fold change vs veh, ARFIP1 / RFU, FAM179B / Fold change vs veh, FAM179B / RFU, BCL10 / Fold change vs veh, BCL10 / RFU, UHRF1BP1L / Fold change vs veh, UHRF1BP1L / RFU, BET1 / Fold change vs veh, BET1 / RFU, CNOT2 / Fold change vs veh, CNOT2 / RFU, ZNF268 / Fold change vs veh, ZNF268 / Fold change vs veh, ZNF507 / RFU, DGCR2 / Fold change vs veh, DGCR2 / RFU, WDSUB1 / Fold change vs veh, WDSUB1 / Fold change vs veh, HSP90B1 /// MIR3652 / RFU, ADSS / Fold change vs veh, ADSS / RFU, GK / Fold change vs veh, GK / RFU, ZNF148 / Fold change vs veh, ZNF148 / RFU, TAF9 / Fold change vs veh, TAF9 / RFU, SLC1A5 / Fold change vs veh, SLC1A5 / RFU, SLMO2 / Fold change vs veh, SLMO2 / RFU, ABCC4 / Fold change vs veh, ABCC4 / RFU, LOC101060439 /// RAP1B / Fold change vs veh, LOC101060439 /// RAP1B / RFU, RFX7 / Fold change vs veh, RFX7 / RFU, GTPBP10 / Fold change vs veh, GTPBP10 / RFU, CNEP1R1 / Fold change vs veh, CNEP1R1 / RFU, BIVM-ERCC5 /// ERCC5 / Fold change vs veh, BIVM-ERCC5 /// ERCC5 / RFU, ILF3 / Fold change vs veh, ILF3 / RFU 11762660_at / Fold change /veh 11762660_at / RFU VCAN (11757783_s_at) / Fold change /veh VCAN (11757783_s_at) / RFU DDX43 (11728927_at) / Fold change /veh DDX43 (11728927_at) / RFU KRT8 (11758188_x_at) / Fold change /veh KRT8 (11758188_x_at) / RFU NKD1 (11759106_at) / Fold change /veh NKD1 (11759106_at) / RFU SRD5A1 (11742802_a_at) / Fold change /veh SRD5A1 (11742802_a_at) / RFU TPSAB1 /// TPSB2 (11721975_s_at) / Fold change /veh TPSAB1 /// TPSB2 (11721975_s_at) / RFU GSTM3 (11746129_a_at) / Fold change /veh GSTM3 (11746129_a_at) / RFU IL23R (11737362_x_at) / Fold change /veh IL23R (11737362_x_at) / RFU TMEM51 (11727254_a_at) / Fold change /veh TMEM51 (11727254_a_at) / RFU PIWIL2 (11732686_x_at) / Fold change /veh PIWIL2 (11732686_x_at) / RFU ORM1 (11744905_x_at) / Fold change /veh ORM1 (11744905_x_at) / RFU CCDC152 (11743942_at) / Fold change /veh CCDC152 (11743942_at) / RFU ECM1 (11717891_a_at) / Fold change /veh ECM1 (11717891_a_at) / RFU IL23R (11748794_a_at) / Fold change /veh IL23R (11748794_a_at) / RFU TNFAIP8L3 (11732012_x_at) / Fold change /veh TNFAIP8L3 (11732012_x_at) / RFU MBOAT4 (11741988_at) / Fold change /veh MBOAT4 (11741988_at) / RFU 11764193_at / Fold change /veh 11764193_at / RFU TMEM53 (11763286_at) / Fold change /veh TMEM53 (11763286_at) / RFU MAGEB2 (11727129_at) / Fold change /veh MAGEB2 (11727129_at) / RFU TMEM200A (11744735_a_at) / Fold change /veh TMEM200A (11744735_a_at) / RFU CCDC152 (11751479_a_at) / Fold change /veh CCDC152 (11751479_a_at) / RFU FAM211A (11726209_a_at) / Fold change /veh FAM211A (11726209_a_at) / RFU RGS16 (11746705_a_at) / Fold change /veh RGS16 (11746705_a_at) / RFU VCAN (11755009_s_at) / Fold change /veh VCAN (11755009_s_at) / RFU RHOB (11743442_s_at) / Fold change /veh RHOB (11743442_s_at) / RFU RGS16 (11720943_a_at) / Fold change /veh RGS16 (11720943_a_at) / RFU RGS16 (11720944_at) / Fold change /veh RGS16 (11720944_at) / RFU, VPS4B / Fold change vs veh, VPS4B / RFU, CREB1 / Fold change vs veh, CREB1 / RFU, DNAJC13 / Fold change vs veh, DNAJC13 / RFU, GNAQ / Fold change vs veh, GNAQ / RFU, CDK5R1 / Fold change vs veh, CDK5R1 / RFU, ZRANB3 / Fold change vs veh, ZRANB3 / RFU, CUL4A / Fold change vs veh, CUL4A / RFU, CCNY / Fold change vs veh, CCNY / RFU, UFL1 / Fold change vs veh, UFL1 / RFU, COG3 / Fold change vs veh, COG3 / RFU, DIAPH2 / Fold change vs veh, DIAPH2 / RFU, SKA2 / Fold change vs veh, SKA2 / RFU, AFF3 / Fold change vs veh, AFF3 / RFU, LMF1 / Fold change vs veh, LMF1 / RFU, IPO11 / Fold change vs veh, IPO11 / RFU, DFFB / Fold change vs veh, DFFB / RFU, FOXP1 / Fold change vs veh, FOXP1 / RFU, CARD8 / Fold change vs veh, CARD8 / RFU, STRN3 / Fold change vs veh, STRN3 / RFU, ADK / Fold change vs veh, ADK / RFU, RASSF2 / Fold change vs veh, RASSF2 / RFU, WIPF1 / Fold change vs veh, WIPF1 / RFU, LARP1B / Fold change vs veh, LARP1B / RFU, RASA1 / Fold change vs veh, RASA1 / RFU, RB1 / Fold change vs veh, RB1 / RFU, PPFIA1 / Fold change vs veh, PPFIA1 / RFU, MAT2A / Fold change vs veh, MAT2A / RFU, CCT5 / Fold change vs veh, CCT5 / RFU, WDR92 / Fold change vs veh, WDR92 / RFU, CUX1 / Fold change vs veh, CUX1 / RFU, TTC7A / Fold change vs veh, TTC7A / RFU, TMEM135 / Fold change vs veh, TMEM135 / RFU, DEPTOR / Fold change vs veh, DEPTOR / RFU, CPM / Fold change vs veh, CPM / RFU, DNAJB6 / Fold change vs veh, DNAJB6 / RFU, CACNA2D3 / Fold change vs veh, CACNA2D3 / RFU, DTX4 / Fold change vs veh, DTX4 / RFU, TFCP2 / Fold change vs veh, TFCP2 / RFU, GMCL1 /// GMCL1P1 / Fold change vs veh, GMCL1 /// GMCL1P1 / RFU, AEBP2 / Fold change vs veh, AEBP2 / RFU, SNHG1 /// SNORD22 /// SNORD25 /// SNORD26 /// SNORD27 /// SNORD28 /// SNORD29 /// SNORD31 / Fold change vs veh, SNHG1 /// SNORD22 /// SNORD25 /// SNORD26 /// SNORD27 /// SNORD28 /// SNORD29 /// SNORD31 / Fold change (Aza/veh), C12orf56 (ProbeSet 11735607_a_at) / Fold change (ACY-1035/veh), C12orf56 (ProbeSet 11735607_a_at) / Fold change (Aza/veh), FGFR1OP (ProbeSet 11751329_s_at) / Fold change (ACY-1035/veh), FGFR1OP (ProbeSet 11751329_s_at) / Fold change (Aza/veh), VPS36 (ProbeSet 11739960_a_at) / Fold change (ACY-1035/veh), VPS36 (ProbeSet 11739960_a_at) / RFU SYPL1 (11715823_x_at) / Fold change /veh SYPL1 (11715823_x_at) / RFU IGFBP7 (11715501_s_at) / Fold change /veh IGFBP7 (11715501_s_at) / RFU REEP3 (11722064_at) / Fold change /veh REEP3 (11722064_at) / RFU IGLL1 (11728026_x_at) / Fold change /veh IGLL1 (11728026_x_at): dose or concentration left out as unconfirmed
# Conditions: MV-4-11 cells, 48 hours
structure (smiles),measurement,value
Nc1ncn([C@@H]2O[C@H](CO)[C@@H](O)[C@H]2O)c(=O)n1 [azacitidine],RFU BIN1 (11741810_x_at),29.77 RFU
